Data from ChEMBL document CHEMBL5465560, “Selectivity Literature for EUbOPEN Chemogenomic Library” (2024).
Values belong to the compound of their own block, whether it stands above or below them.

Key:
[1] = molecular target: T1, Myotonin-protein kinase (Homo sapiens) (UniProt Q09013); experiment: Selectivity interaction (KinomeScan (DiscoverX)) EUB0001079a DMPK; settings: at 1 µM
T1 sequence (whole entry): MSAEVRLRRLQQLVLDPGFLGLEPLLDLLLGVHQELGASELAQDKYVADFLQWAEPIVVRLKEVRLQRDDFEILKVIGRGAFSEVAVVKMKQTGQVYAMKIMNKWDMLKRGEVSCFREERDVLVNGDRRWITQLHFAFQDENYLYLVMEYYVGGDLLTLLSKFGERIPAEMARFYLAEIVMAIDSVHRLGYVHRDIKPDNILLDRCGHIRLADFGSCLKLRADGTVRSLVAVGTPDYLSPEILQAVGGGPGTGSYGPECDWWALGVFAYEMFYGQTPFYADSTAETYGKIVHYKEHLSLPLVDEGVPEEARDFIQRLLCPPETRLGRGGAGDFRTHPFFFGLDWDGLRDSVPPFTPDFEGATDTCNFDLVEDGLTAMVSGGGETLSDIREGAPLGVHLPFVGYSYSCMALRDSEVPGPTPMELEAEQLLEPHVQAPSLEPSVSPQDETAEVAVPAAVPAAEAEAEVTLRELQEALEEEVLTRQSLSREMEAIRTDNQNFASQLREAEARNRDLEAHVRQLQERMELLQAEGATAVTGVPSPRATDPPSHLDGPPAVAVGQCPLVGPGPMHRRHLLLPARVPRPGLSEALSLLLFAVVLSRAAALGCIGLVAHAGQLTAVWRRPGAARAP

[2] = molecular target: Ribosomal protein S6 kinase alpha-3 (Homo sapiens, UniProt P51812); experiment: Selectivity interaction (KinomeScan (DiscoverX)) EUB0001619a RPS6KA3; settings: at 1 µM
Sequence of Ribosomal protein S6 kinase alpha-3 (P51812 whole entry): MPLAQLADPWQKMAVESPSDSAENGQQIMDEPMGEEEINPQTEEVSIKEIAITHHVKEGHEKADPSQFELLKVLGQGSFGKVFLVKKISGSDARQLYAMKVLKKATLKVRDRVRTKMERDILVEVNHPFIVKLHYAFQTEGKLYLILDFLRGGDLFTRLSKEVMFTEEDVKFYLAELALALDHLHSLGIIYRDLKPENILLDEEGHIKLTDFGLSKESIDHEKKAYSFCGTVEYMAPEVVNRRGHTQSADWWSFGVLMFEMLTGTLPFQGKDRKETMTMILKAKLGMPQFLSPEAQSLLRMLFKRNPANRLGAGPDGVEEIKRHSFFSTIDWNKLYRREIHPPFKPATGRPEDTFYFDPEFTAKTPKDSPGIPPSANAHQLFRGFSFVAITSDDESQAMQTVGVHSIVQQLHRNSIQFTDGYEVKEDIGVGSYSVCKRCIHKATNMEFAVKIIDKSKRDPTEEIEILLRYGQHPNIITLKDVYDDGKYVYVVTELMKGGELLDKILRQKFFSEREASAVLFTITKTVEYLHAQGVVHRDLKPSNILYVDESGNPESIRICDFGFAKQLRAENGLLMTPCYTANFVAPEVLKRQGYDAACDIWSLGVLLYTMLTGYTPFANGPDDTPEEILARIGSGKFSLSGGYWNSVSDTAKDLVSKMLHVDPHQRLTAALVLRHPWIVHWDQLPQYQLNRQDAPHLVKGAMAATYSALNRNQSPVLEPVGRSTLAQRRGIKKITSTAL

[3] = molecular target: Calcium/calmodulin-dependent protein kinase type 1G (Homo sapiens) (UniProt Q96NX5); experiment: Selectivity interaction (KinomeScan (DiscoverX)) EUB0000045b CAMK1G
Sequence of Calcium/calmodulin-dependent protein kinase type 1G (Homo sapiens) (Q96NX5 whole entry): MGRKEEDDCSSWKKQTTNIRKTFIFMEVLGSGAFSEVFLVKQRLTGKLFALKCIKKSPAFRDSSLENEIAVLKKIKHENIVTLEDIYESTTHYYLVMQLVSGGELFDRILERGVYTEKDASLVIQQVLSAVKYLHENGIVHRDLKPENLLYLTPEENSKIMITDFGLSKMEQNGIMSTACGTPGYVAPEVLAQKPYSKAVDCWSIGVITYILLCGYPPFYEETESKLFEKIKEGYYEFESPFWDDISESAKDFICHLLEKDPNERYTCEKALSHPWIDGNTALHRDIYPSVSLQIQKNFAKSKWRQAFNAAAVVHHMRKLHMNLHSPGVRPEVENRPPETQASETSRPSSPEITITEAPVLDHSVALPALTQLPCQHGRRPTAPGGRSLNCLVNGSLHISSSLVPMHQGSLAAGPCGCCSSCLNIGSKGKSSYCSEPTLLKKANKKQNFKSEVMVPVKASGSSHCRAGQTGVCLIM

[4] = molecular target: T2, Mitogen-activated protein kinase kinase kinase 19 (Homo sapiens) (UniProt Q56UN5); experiment: Selectivity interaction (KinomeScan (DiscoverX)) EUB0000045b MAP3K19
T2 sequence (whole entry): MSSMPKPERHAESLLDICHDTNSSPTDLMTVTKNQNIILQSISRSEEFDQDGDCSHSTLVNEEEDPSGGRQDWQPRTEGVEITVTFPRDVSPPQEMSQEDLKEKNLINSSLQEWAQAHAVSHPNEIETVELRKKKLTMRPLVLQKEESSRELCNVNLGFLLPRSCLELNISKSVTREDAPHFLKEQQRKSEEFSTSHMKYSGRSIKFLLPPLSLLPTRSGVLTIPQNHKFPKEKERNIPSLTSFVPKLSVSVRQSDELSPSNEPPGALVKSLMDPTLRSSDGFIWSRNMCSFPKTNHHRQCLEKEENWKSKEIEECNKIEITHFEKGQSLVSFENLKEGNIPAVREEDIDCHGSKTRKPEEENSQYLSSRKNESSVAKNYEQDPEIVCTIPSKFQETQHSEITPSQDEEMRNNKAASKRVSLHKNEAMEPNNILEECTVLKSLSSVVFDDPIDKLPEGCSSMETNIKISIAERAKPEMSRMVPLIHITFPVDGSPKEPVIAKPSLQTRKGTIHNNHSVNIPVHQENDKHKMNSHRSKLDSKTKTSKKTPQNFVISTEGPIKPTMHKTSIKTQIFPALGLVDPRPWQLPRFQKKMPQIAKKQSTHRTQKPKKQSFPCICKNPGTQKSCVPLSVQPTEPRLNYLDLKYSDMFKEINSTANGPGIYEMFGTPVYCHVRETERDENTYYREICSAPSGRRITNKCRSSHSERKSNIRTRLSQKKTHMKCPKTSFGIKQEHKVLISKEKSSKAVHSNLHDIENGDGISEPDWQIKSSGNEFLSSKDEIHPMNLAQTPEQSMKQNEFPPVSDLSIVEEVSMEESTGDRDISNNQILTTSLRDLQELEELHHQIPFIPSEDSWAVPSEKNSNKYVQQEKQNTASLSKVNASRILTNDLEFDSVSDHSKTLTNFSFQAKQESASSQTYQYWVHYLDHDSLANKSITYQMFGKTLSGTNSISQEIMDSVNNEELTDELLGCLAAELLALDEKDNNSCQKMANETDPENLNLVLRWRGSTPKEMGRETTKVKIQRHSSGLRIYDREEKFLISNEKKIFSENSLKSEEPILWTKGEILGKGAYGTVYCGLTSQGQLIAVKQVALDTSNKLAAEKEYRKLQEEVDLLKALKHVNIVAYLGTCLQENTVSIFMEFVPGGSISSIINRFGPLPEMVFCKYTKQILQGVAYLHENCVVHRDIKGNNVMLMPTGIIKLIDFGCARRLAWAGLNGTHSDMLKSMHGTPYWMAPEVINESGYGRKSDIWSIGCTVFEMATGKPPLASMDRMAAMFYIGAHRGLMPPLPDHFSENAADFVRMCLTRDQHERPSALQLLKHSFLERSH

[5] = molecular target: T3, Homeodomain-interacting protein kinase 4 (Homo sapiens) (UniProt Q8NE63); experiment: Selectivity interaction (KinomeScan (DiscoverX)) EUB0000595a HIPK4; settings: at 10 µM
T3 sequence (whole entry): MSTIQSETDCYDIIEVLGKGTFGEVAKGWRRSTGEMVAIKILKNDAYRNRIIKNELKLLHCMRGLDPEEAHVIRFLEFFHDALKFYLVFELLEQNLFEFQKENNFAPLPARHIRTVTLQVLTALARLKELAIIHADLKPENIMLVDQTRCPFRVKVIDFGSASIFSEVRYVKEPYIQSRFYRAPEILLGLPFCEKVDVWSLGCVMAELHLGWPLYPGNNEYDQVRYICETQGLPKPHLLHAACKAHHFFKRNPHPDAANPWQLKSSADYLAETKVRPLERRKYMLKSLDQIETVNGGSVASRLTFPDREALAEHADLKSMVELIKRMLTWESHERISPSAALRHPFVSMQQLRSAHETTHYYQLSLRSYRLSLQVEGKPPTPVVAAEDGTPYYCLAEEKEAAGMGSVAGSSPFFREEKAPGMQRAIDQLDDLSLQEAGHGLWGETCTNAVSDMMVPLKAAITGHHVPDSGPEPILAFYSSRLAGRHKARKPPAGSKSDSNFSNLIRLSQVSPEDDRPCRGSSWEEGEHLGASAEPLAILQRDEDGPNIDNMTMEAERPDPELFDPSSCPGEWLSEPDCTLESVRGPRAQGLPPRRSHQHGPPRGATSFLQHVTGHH

Ephrin type-A receptor 4 = Ephrin type-A receptor 4 (Homo sapiens, UniProt P54764); experiment: Selectivity interaction (ProQinase) EUB0000171b EPHA4
Sequence of Ephrin type-A receptor 4 (P54764 whole entry): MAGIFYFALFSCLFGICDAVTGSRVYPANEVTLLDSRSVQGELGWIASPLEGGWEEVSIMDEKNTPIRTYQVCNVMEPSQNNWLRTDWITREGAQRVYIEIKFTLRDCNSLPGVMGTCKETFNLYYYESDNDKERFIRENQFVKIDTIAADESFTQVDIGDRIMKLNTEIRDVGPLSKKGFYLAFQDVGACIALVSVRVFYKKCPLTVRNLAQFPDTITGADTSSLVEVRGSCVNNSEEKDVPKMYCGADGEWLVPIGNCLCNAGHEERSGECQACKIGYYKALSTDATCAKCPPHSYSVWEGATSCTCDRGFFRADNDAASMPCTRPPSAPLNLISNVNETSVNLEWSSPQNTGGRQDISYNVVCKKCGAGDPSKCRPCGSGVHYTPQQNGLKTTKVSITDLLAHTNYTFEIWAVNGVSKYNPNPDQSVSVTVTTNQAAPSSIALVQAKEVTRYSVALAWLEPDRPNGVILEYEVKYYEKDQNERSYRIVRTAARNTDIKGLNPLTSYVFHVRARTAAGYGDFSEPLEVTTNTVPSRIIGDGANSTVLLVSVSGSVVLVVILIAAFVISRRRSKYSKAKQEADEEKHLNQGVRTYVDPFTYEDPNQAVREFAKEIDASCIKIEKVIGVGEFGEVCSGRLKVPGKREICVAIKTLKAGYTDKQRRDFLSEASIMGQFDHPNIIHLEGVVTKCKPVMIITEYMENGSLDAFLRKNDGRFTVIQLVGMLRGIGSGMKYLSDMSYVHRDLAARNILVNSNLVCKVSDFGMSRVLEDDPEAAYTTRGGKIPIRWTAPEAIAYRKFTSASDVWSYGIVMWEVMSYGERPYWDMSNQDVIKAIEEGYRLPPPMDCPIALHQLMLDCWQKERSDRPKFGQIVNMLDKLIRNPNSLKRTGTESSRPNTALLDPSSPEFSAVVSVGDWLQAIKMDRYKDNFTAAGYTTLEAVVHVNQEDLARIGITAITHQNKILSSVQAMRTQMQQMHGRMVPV

[6] = molecular target: Ribosomal protein S6 kinase alpha-4 (Homo sapiens) (UniProt O75676); experiment: Selectivity interaction (KinomeScan (DiscoverX)) EUB0001049a RPS6KA4; settings: at 1 µM
Sequence of Ribosomal protein S6 kinase alpha-4 (Homo sapiens) (O75676 whole entry, looked up): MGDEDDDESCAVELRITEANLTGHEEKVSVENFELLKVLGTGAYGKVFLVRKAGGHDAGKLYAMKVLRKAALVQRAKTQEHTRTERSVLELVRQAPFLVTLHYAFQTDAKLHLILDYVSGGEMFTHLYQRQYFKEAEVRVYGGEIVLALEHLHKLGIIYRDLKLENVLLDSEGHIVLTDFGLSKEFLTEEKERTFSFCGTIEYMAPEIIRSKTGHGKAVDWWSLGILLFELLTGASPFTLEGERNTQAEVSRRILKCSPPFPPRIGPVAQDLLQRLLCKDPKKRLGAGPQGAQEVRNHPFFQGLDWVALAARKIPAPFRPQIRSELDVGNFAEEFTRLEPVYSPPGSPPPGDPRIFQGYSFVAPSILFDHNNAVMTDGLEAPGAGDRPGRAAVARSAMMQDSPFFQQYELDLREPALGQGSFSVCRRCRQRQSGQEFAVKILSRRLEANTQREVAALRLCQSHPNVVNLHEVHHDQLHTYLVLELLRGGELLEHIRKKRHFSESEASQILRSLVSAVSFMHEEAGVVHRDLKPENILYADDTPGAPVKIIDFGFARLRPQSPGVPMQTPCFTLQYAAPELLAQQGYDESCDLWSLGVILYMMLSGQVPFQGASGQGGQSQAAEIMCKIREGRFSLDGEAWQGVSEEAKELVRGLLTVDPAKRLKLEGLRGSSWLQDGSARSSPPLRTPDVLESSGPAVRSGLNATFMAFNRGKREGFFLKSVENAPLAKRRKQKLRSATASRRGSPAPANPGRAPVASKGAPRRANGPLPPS

Compound: Nc1cnc(N2CCc3cc(S(=O)(=O)Nc4c(F)cc(Cl)cc4F)cc(N4CCCC4=O)c32)nc1 [TP-020n]
% of control [1]: 100%

Compound: N#Cc1cccc(-c2c[nH]c3ncnc(N4CCOCC4)c23)c1
% of control [2]: 38%

Compound: C=CC(=O)Nc1cc(-n2c(=O)ccc3cnc4ccc(-c5ccc(NS(C)(=O)=O)cc5)cc4c32)ccc1C
% of control ([3]; at 1 µM): 100% | % of control ([3]; at 10 µM): 68% | % of control ([4]; at 1 µM): 100% | % of control ([4]; at 10 µM): 65%

Compound: COCC(=O)NC/C=C/c1ccc2ncnc(Nc3ccc(Oc4ccc(C)nc4)c(C)c3)c2c1 [CP-724714]
% of control [5]: 95%

% of control (Ephrin type-A receptor 4; at 1 µM): 93% | % of control (Ephrin type-A receptor 4; at 5 µM): 78%
Compound: C=CC(=O)Nc1cccc(C(=O)Nc2ccc(Nc3cc(-c4[nH]c(SC)nc4C)ccn3)cc2)c1

Compound: COc1cc(Nc2nc(C)cc(-c3cnn4nc(OC)ccc34)n2)cc(C(F)(F)F)c1
% of control [6]: 96%
